Measurements published in patent publication US20250120952A1, “17-Beta-Hydroxysteroid Dehydrogenase Type 13 Inhibitors And Methods Of Use Thereof” (ENANTA PHARMACEUTICALS, INC., priority 2023, published 2025).

Key:
HSD17B13 = molecular target: T1, HSD17B13 (Homo sapiens, UniProt Q7Z5P4); assay: HSD17B13 enzymatic activity in H441 cells (estradiol conversion to estrone, rapid fire mass spectrometry); format: cell-based; settings: H441 (high HSD17B13), inhibitor 0.3 uM, 1 uM, 3 uM, 24 hours; effect only in H441, not in A549 (low HSD17B13) (FIG. 10)
T1 construct: Human lung cancer cell lines with high (H441) or low (A549) expression of HSD17B13, as confirmed by western blot; host or cells: H441 human lung cancer cell line
T1 sequence (Q7Z5P4 20-300): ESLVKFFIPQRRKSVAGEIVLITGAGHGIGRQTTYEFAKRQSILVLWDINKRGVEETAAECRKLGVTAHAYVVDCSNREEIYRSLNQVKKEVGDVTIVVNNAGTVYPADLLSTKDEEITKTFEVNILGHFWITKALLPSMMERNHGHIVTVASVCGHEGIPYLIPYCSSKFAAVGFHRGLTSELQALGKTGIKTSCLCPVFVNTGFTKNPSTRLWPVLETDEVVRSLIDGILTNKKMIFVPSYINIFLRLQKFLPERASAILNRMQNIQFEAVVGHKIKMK
Method: (§1) Human lung cancer cell lines with high (H441) or low (A549) expression of HSD17B13, as confirmed by western blot, were acquired from ATCC and maintained according to manufacturer's instructions. Cells were seeded at a confluency of 2e5 cells/well (A549) or 4e5 cells/well (H441) in a 6-well format. Once cells were 70% confluent, media was removed and replenished with starvation media for 24 hours. Afterward starvation media was removed and replenished with treatment media for 24 hours. Compound 348 and Compound 812 were used as HSD17B13 inhibitors. For gene expression analysis, treatment media consisted of +/−TGFB1 (10 ng/mL) and +/−HSD17B13 inhibitor (3 uM). For HSD17B13 enzymatic activity, treatment media consisted of +/−d2-Estradiol (Cayman Chemicals) and +/−HSD17B13 inhibitor (0.3 uM, 1 uM, 3 uM); supernatants were collected to measure estradiol conversion to estrone by rapid fire mass spectrometry.

H441 cells = assay: Collagen / COL1A1 mRNA in H441 cells; format: cell-based, human; settings: H441 (high HSD17B13), +/-TGFB1 10 ng/mL, inhibitor 3 uM, 24 hours; effect only in H441, not in A549 (low HSD17B13) (FIG. 11)
Method: as §1

With `COc1cc(C(=O)O)ccc1NS(=O)(=O)c1csc(-c2ccc(C3CCC(C(F)(F)F)CC3)cc2)n1` (centres unmarked) [Compound 348] the “enzymatic activity (d2-estradiol conversion to estrone)” value (HSD17B13) was “decreased” and the “COL1A1 (Collagen)” value (H441 cells) was “decreased”.
